In brackets after ≈: the same amount, converted by molar mass. Where two headings read alike, the source gives them in different places.
Legend:
MRSA ATCC 43300 = assay: MIC, double dilution method, MRSA ATCC 43300; format: cell-based, Methicillin-resistant Staphylococcus aureus; conditions: Staphylococcus aureus, 24 h, MRSA ATCC 43300, Gram-positive, 24 h culture
S. aureus ATCC 6538 = assay: MIC, double dilution method, S. aureus ATCC 6538; format: cell-based; conditions: Staphylococcus aureus, ATCC6538, 24 h
[1] = tested on: Staphylococcus aureus ATCC 6538; assay: Minimum bactericidal concentration, S. aureus ATCC 6538; format: cell-based; conditions: ATCC6538, 99.9% reduction of inoculum
Protocol: (§1) Moreover, minimum bactericidal concentration (MBC (μg/mL)) or minimum fungicidal concentration (MFC (μg/mL)) assays were performed for the promising compounds 10d, 10f, 10g and 10h against Staphylococcus aureus ATCC 6538, Staphylococcus aureus 4220, Staphylococcus aureus ATCC 43300 and Candida albicans CMCC 98001, and shown in Table 2.
(§2) The minimum bactericidal concentration (MBC) or minimum fungicidal concentration (MFC) was determined as described, following the MIC assay, by subculturing 5 μL of the compounds from wells showing no visible growth onto fresh agar plates. The plates were incubated at 37 °C for 24 h.

C. albicans CMCC 98001 = assay: MIC, double dilution method, C. albicans CMCC 98001; format: cell-based, Candida albicans; conditions: for MIC: C. albicans CMCC 98001, fungus, 24 h culture
E. coli ATCC 25922 = assay: MIC, double dilution method, E. coli ATCC 25922; format: cell-based; conditions: Escherichia coli
S. aureus 4220 = assay: MIC, double dilution method, S. aureus 4220; format: cell-based; conditions: Staphylococcus aureus, 4220, 24 h
P. aeruginosa CMCC 10211 = assay: MIC, double dilution method, P. aeruginosa CMCC 10211; format: cell-based; conditions: Pseudomonas aeruginosa
[2] = Cytotoxicity, MTT assay, L-02; format: cell-based; conditions: human, L-02 cells (normal liver cell line), 48 h incubation
Protocol: (§3) The cytotoxicity of the most bioactive compounds 10f, 10g and 10h were evaluated in vitro against the HepG2 cell line (human hepatocellular carcinoma cell line) and the L-02 cell line (normal liver cell line) by 3-(4,5-dimethylthiazol-2-yl)-2,5-diphenyltetrazolium bromide (MTT) assay. The obtained results were presented by the inhibitory concentration that reduces the viability of the cell population to 50% of the maximal viability (IC50).
(§4) HepG2 cells and L-02 cells (ATCC, Manassas, VA, USA) were plated in 96-well plates at a density of 30–40% to ensure exponential growth throughout the experimental period, and then allowed to adhere for 1 day. Next, the cells were treated with eight concentrations (100, 50, 25, 10, 5, 1, 0.1, and 0.01 μmol/L) of each compound. After 48 h of incubation, MTT solution was added to each well at a final concentration of 2 mg/mL and incubated for an additional 4 h. Next, the MTT solution was removed and […] of dimethyl sulphoxide (DMSO)/well was added (Sigma-Aldrich, St. Louis, MO, USA). The plates were shaken vigorously at RT to ensure complete solubilization, and absorption at 492 nm was determined by a microplate reader (BioTek Instruments, Inc., Winooski, VT, USA). At least three independent experiments were conducted.

E. coli 1924 = assay: MIC, double dilution method, E. coli 1924; format: cell-based, Escherichia coli
[3] = Cytotoxicity, MTT assay, HepG2; format: cell-based; conditions: human, HepG2 cells, 48 h incubation
Protocol: as §3, §4

[4] = tested on: three Gram-positive bacteria strains and two Gram-negative bacteria strains; design: method as in PMID 29968851; conditions: cited from earlier work
[5] = tested on: Gram-positive and Gram-negative bacterial strains; design: method as in PMID 27318539; conditions: most of the tested Gram-positive and Gram-negative bacterial strains; cited from earlier work
Staphylococcus aureus = tested on: Staphylococcus aureus; design: method as in PMID 28946655; conditions: cited from earlier work
[6] = tested on: Candida albicans CMCC 98001; assay: Minimum fungicidal concentration, C. albicans CMCC 98001; format: cell-based
Protocol: as §1, §2

[7] = tested on: Staphylococcus aureus 4220; assay: Minimum bactericidal concentration, S. aureus 4220; format: cell-based; conditions: 99.9% reduction of inoculum
Protocol: as §1, §2

E. coli ATCC 25,922 = tested on: E. coli ATCC 25,922; design: method as in PMID 33839249; conditions: cited from earlier work
[8] = tested on: four bacteria and three fungi; design: method as in doi:10.1007/s11164-013-1403-x; conditions: cited from earlier work
[9] = tested on: Staphylococcus aureus ATCC 43300; assay: Minimum bactericidal concentration, S. aureus ATCC 43300; format: cell-based; conditions: ATCC43300
Protocol: as §1, §2

[10] = Candida albicans, CMCC98001, 24 h
[11] = S. aureus ATCC 6538, Gram-positive, 24 h culture, read-out: MIC
[12] = Candida albicans, CMCC98001, 24 h, read-out: MIC
[13] = ATCC25922, E. coli ATCC 25922, Gram-negative, 24 h culture, read-out: MIC
[14] = S. aureus 4220, Gram-positive, 24 h culture, read-out: MIC
[15] = CMCC10211, P. aeruginosa CMCC 10211, Gram-negative, 24 h culture, read-out: MIC
[16] = Escherichia coli, E. coli 1924, Gram-negative, 24 h culture, read-out: MIC

Compound: Cc1cccc2c1N(C)C(=O)/C2=C(\O)c1ccc(Cl)cc1 [Compound 10f, (Z)-3-((4-chlorophenyl)(hydroxy)methylene)-1,7-dimethylindolin-2-one]
- MIC (MRSA ATCC 43300): 2 µg/mL (≈ 6.67 µM)
- MIC (S. aureus ATCC 6538): 0.5 µg/mL (≈ 1.67 µM)
- MBC [1]: 32 µg/mL (≈ 107 µM)
- MIC (C. albicans CMCC 98001; [10]): > 64 µg/mL
- MIC (E. coli ATCC 25922; ATCC25922, 24 h): > 64 µg/mL
- MIC (S. aureus 4220): 4 µg/mL (≈ 13.3 µM)
- MIC (P. aeruginosa CMCC 10211; CMCC10211, 24 h): > 64 µg/mL
- IC50 at 48 h [2]: > 100 µM
- MIC (E. coli 1924; Escherichia coli, 1924, 24 h): 8 µg/mL (≈ 26.7 µM)
- IC50 at 48 h [3]: > 100 µM

Compound: Cn1c([N+](=O)[O-])cnc1/C=C1/C(=O)Nc2ccc([N+](=O)[O-])cc21 [Compound XI]
- MIC [4]: 0.0625 to 4 µg/mL

Compound: CN(C)c1cccc2cc(S(=O)(=O)N3CCN(c4ccc(/C=C5\C(=O)Nc6ccccc65)cc4)CC3)ccc12 [VII]
- MIC [5]: 12.5 to 50 µg/mL

Compound: O=C1NC(c2c[nH]c3ccc(O)cc23)=C/C1=C1\C(=O)Nc2ccccc21 [Compound VI, violacein]
- MIC (Staphylococcus aureus): 6.25 µM (≈ 2.15 µg/mL)

Compound: C/C(O)=C1/C(=O)N(C)c2ccccc21 [Compound 5a, (Z)-3-(1-hydroxyethylidene)-1-methylindolin-2-one]
- MIC (MRSA ATCC 43300; read-out: MIC): > 64 µg/mL
- MIC (S. aureus ATCC 6538; [11]): > 64 µg/mL
- MIC (C. albicans CMCC 98001; [12]): 32 µg/mL (≈ 169 µM)
- MIC (E. coli ATCC 25922; [13]): > 64 µg/mL
- MIC (S. aureus 4220; [14]): 64 µg/mL (≈ 338 µM)
- MIC (P. aeruginosa CMCC 10211; [15]): 64 µg/mL (≈ 338 µM)
- MIC (E. coli 1924; [16]): 64 µg/mL (≈ 338 µM)
- melting point: 95 to 97 °C

Compound: CN1C(=O)/C(=C(\O)c2ccc(F)cc2)c2ccccc21 [Compound 10d, (Z)-3-((4-fluorophenyl)(hydroxy)methylene)-1-methylindolin-2-one]
- MIC (MRSA ATCC 43300): 32 µg/mL (≈ 119 µM)
- MIC (S. aureus ATCC 6538): 4 µg/mL (≈ 14.9 µM)
- antifungal activity (class in words) (C. albicans CMCC 98001; C. albicans CMCC 98001): moderate antifungal activity
- MIC (C. albicans CMCC 98001): 8 µg/mL (≈ 29.7 µM)
- MIC (C. albicans CMCC 98001; [10]): 8 to 16 µg/mL (≈ 29.7 to 59.4 µM)
- MFC/MIC [6]: 2
- MFC ([6]; CMCC98001, 99.9% reduction of inoculum): 16 µg/mL (≈ 59.4 µM)
- MIC (E. coli ATCC 25922; ATCC25922, 24 h): 64 µg/mL (≈ 238 µM)
- MIC (S. aureus 4220): 16 µg/mL (≈ 59.4 µM)
- MIC (P. aeruginosa CMCC 10211; CMCC10211, 24 h): > 64 µg/mL
- MIC (E. coli 1924; Escherichia coli, 1924, 24 h): 8 µg/mL (≈ 29.7 µM)

Compound: CN1C(=O)/C(=C(\O)c2ccc(Cl)cc2)c2cccc(Br)c21 [Compound 10g, (Z)-7-bromo-3-((4-chlorophenyl)(hydroxy)methylene)-1-methylindolin-2-one]
- MIC (MRSA ATCC 43300): 0.5 µg/mL (≈ 1.37 µM)
- MIC (S. aureus ATCC 6538): 2 µg/mL (≈ 5.49 µM)
- MIC (C. albicans CMCC 98001; [10]): > 64 µg/mL
- MIC (E. coli ATCC 25922; ATCC25922, 24 h): 64 µg/mL (≈ 176 µM)
- MIC (S. aureus 4220): 0.5 µg/mL (≈ 1.37 µM)
- MIC (P. aeruginosa CMCC 10211; CMCC10211, 24 h): > 64 µg/mL
- IC50 at 48 h [2]: > 100 µM
- MBC [7]: 32 µg/mL (≈ 87.8 µM)
- MIC (E. coli 1924; Escherichia coli, 1924, 24 h): 1 µg/mL (≈ 2.74 µM)
- IC50 at 48 h [3]: > 100 µM

Compound: CCC(=O)/C=C1/C(=O)N(CCn2cncn2)c2ccccc21 [IX]
- MIC (E. coli ATCC 25,922): 1 µg/mL (≈ 3.37 µM)

Compound: CN1C(=O)/C(=C(\O)c2cccs2)c2ccccc21 [Compound 10a, (Z)-3-(hydroxy(thiophen-2-yl)methylene)-1-methylindolin-2-one]
- MIC (MRSA ATCC 43300; read-out: MIC): 64 µg/mL (≈ 249 µM)
- MIC (S. aureus ATCC 6538; [11]): 64 µg/mL (≈ 249 µM)
- MIC (C. albicans CMCC 98001; [12]): 64 µg/mL (≈ 249 µM)
- MIC (E. coli ATCC 25922; [13]): > 64 µg/mL
- MIC (S. aureus 4220; [14]): > 64 µg/mL
- MIC (P. aeruginosa CMCC 10211; [15]): 64 µg/mL (≈ 249 µM)
- MIC (E. coli 1924; [16]): 32 µg/mL (≈ 124 µM)
- melting point: 141 to 143 °C

Compound: O=C1Nc2ccccc2/C1=C\C(=O)c1cc(Cl)c(Cl)cc1O [Compound X]
- MIC [8]: 12 to 18 µg/mL

Compound: CCCN1C(=O)/C(=C(\O)c2ccc(Cl)cc2)c2ccccc21 [Compound 10h, (Z)-3-((4-chlorophenyl)(hydroxy)methylene)-1-propylindolin-2-one]
- MIC (MRSA ATCC 43300): 0.5 µg/mL (≈ 1.59 µM)
- MIC (S. aureus ATCC 6538): 0.5 µg/mL (≈ 1.59 µM)
- MBC [9]: 32 µg/mL (≈ 102 µM)
- MIC (C. albicans CMCC 98001; [10]): 64 µg/mL (≈ 204 µM)
- MIC (E. coli ATCC 25922; ATCC25922, 24 h): 16 µg/mL (≈ 51 µM)
- MIC (S. aureus 4220): 1 µg/mL (≈ 3.19 µM)
- MIC (P. aeruginosa CMCC 10211; CMCC10211, 24 h): 16 µg/mL (≈ 51 µM)
- IC50 at 48 h [2]: 53.5 µM
- MIC (E. coli 1924; Escherichia coli, 1924, 24 h): 1 µg/mL (≈ 3.19 µM)
- IC50 at 48 h [3]: 41.6 µM

Compound: OC(Cn1cncn1)(Cn1cncn1)c1ccc(F)cc1F [Flu, Fluconazole, reference compound]
- MIC (MRSA ATCC 43300; read-out: MIC): > 64 µg/mL
- MIC (S. aureus ATCC 6538; [11]): > 64 µg/mL
- MIC (C. albicans CMCC 98001; [12]): 2 µg/mL (≈ 6.53 µM)
- MIC (E. coli ATCC 25922; [13]): > 64 µg/mL
- MIC (S. aureus 4220; [14]): > 64 µg/mL
- MIC (P. aeruginosa CMCC 10211; [15]): > 64 µg/mL
- MIC (E. coli 1924; [16]): > 64 µg/mL

Compound: CN1C(=O)/C(=C(\O)c2ccccc2)c2ccccc21 [Compound 10b, (Z)-3-(hydroxy(phenyl)methylene)-1-methylindolin-2-one]
- MIC (MRSA ATCC 43300): 32 µg/mL (≈ 127 µM)
- MIC (S. aureus ATCC 6538): 8 µg/mL (≈ 31.8 µM)
- MIC (C. albicans CMCC 98001; [10]): > 64 µg/mL
- MIC (E. coli ATCC 25922; ATCC25922, 24 h): 64 µg/mL (≈ 255 µM)
- MIC (S. aureus 4220): 32 µg/mL (≈ 127 µM)
- MIC (P. aeruginosa CMCC 10211; CMCC10211, 24 h): > 64 µg/mL
- MIC (E. coli 1924; Escherichia coli, 1924, 24 h): 8 µg/mL (≈ 31.8 µM)

Source: paper PMC11596972, “Synthesis and Antimicrobial Activity of 3-Alkylidene-2-Indolone Derivatives” (Molecules, 2024)
